US12195457B2, “Aromatic ring derivative as immunoregulation and preparation method and application of aromatic ring derivative” (SHANGHAI JEMINCARE PHARMACEUTICALS CO., LTD, priority 2018, dated 2025)

Tests used:
S1P1 [1] = target: T1, S1P1 (Homo sapiens, UniProt P21453); experiment: S1P1 mediated inhibition of forskolin induced cAMP (PathHunter CHO-K1 EDG1 cells); format: cell-based
T1 construct: host or cells: CHO-K1
Protocol: The cell line used in the test was PathHunter® CHO-K1 EDG1 β-Arrestin Cell Line, supplier: DiscoverX, catalog number: 93-0207C2. The inhibitory effect of compounds on S1P1 mediated forskolin induced cAMP activity was evaluated.
Different concentrations of compounds and a final concentration of 0.6 μM forskolin were added to the test plate wells for each test, and the mixture was centrifuged at 1000 rpm for 10 seconds. A frozen cell was taken, washed twice with HBSS buffer and resuspended. 5000 cells were added to test plates per well, the mixture was shaked for 20 seconds, centrifuged at 1000 rpm for 10 seconds, and incubated at room temperature for 60 minutes. Anti-cAMP-Eu^2+-Cryptate and cAMP-d2 were added. Then the mixture was shaked for 20 seconds, centrifuged at 1000 rpm for 10 seconds, incubated at room temperature for 60 minutes, and the plate was read on an Envision plate reader. The data was analyzed by nonlinear regression to determine the EC50 of the compounds for the inhibition of cAMP induced by forskolin.

S1P1 [2] = target: T1, S1P1; experiment: S1P1 receptor internalization (FACS, CHO-K1 EDG1 cells); format: cell-based; conditions: 2 hours incubation; read-out: S1P1 internalized EC50
Protocol: 1. CHO-K1 DEG1 cells (PathHunter® CHO-K1 EDG1 β-Arrestin Cell Line, supplier: DiscoverX, catalog number: 93-0207C2), and culture medium was removed (F12 medium 1000 mL, 10% FBS, 800 μg/mL G418, 300 μg/mL Hygromycin, 1% Glutamax and 1% Pen/Strep), the cells were washed with 2 mL of DPBS, 5 mL of cell dispersion (Invitrogen-13151014) was added to disperse the cells, the cells were incubated in an incubator at 37° C. for 1-2 minutes. The flask was gently patted to make the cells fall off. 5 mL of growth medium was added, and pipette was gently blown to suspend the cells. Cell counting was performed using Vi-Cell. The mixture was centrifuged at 1000 rpm for 5 minutes at room temperature, the supernatant was gently poured out, and the cells in FACS buffer were resuspended to a concentration of 1.5e6 cells per mL. 2. S1P and compounds were diluted with DMSO in a 384-well plate, and a volume of 500 nL was transferred to a 96 V-well plate (Cat #Axygen-WIPP02280). 3. 50 μL of cells were added to a 96-well plate; 4. The 96-well plate was incubated in a 37° C. 5% CO2 incubator for 2 hours. 5. The cells were centrifuged at room temperature at 1500 rpm for 5 minutes to remove the supernatant. 6. 100 μL of FACS buffer was added to the resuspended cells, centrifuged at 1500 rpm for 5 minutes, and the supernatant was removed. 7. The anti-human S1P1/EDG-1-Alex647 (R&D-FAB1864R) and anti-IgG2B-Alex647 (R&D-IC0041R) antibodies were diluted 200 times with FACS buffer. 8. 50 μL of antibody was added to 96 wells, and the plates were transferred to 4° C. for 30 minutes. 9. The cells were centrifuged at room temperature at 1500 rpm for 5 minutes to remove the supernatant. 10. 100 μL of FACS buffer was added to the resuspended cells. 11. The cells were centrifuged at 4° C. at 1500 rpm for 5 minutes to remove the supernatant. 12. After washing, the cells were resuspended in 50 μL of FACS buffer per well. 13. Cell samples were read using iQue Screener PLUS-VBR.

[3] = In vivo pharmacokinetics in rats, intravenous injection and oral administration; parameters: species or system Sprague Dawley rats; conditions: rat; for AUC(0-inf) / clearance / half-life / Cmax: male, Sprague-Dawley, plasma
Protocol: In this experimental embodiment, in vivo pharmacokinetic evaluation was performed in rats by intravenous injection and oral administration.
Experimental methods and conditions: male Sprague Dawley rats were given the test compounds 1 mg/kg (solvent 5% DMSO/15% Solutol/80% Saline) by intravenous injection and 1 mg/kg (solvent 0.5% MC) by oral gavage respectively. 5 min, 15 min, 30 min, 1 hr, 2 hr, 4 hr, 6 hr, 8 hr, 24 hr after administration, blood was collected from submandibular vein, each sample was collected about 0.20 mL, and heparin sodium was used for anti coagulation. After collection, the sample was placed on ice, and the blood was centrifuged to be measured within one hour. Blood drug concentration in plasma was detected by liquid chromatography tandem mass spectrometry (LC/MS/MS), and the pharmacokinetic parameters were calculated by Phoenix WinNonlin software.

S1P1 [4] = target: T1, S1P1; experiment: S1P1 mediated β-arrestin reporter activation (PathHunter CHO-K1 EDG1 β-Arrestin Cell Line); format: cell-based; conditions: 90 minutes incubation at 37° C.
Protocol: The cell line used in the test was PathHunter® CHO-K1 EDG1 β-Arrestin Cell Line, supplier: DiscoverX, catalog number: 93-0207C2. According to the supplier's instructions, the cells were added to the test plate according to 25 μL cell suspension containing 5000 cells per well, and cultured at 37° C. for 20 hours. Compounds of 10 concentrations diluted 4 times were added to the cell culture medium and incubated at 37° C. for 90 minutes. The detection solution was prepared, 12 μL per well, incubated at room temperature for 60 minutes, the plate was read on an Envision plate reader. The data was analyzed by nonlinear regression to determine the EC50 of β-arrestin activity.

[5] = intravenous administration 1 mg/kg

T1 sequence (P21453 whole entry): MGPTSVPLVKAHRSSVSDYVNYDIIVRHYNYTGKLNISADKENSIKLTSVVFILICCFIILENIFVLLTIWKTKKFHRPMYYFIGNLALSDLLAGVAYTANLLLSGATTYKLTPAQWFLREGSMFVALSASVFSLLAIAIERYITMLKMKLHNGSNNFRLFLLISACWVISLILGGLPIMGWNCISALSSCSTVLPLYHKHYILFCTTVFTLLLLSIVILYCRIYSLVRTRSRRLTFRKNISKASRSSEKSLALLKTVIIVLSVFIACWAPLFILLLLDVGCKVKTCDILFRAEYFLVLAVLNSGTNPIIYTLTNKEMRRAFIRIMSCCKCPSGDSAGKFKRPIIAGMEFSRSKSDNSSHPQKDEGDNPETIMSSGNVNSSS

SMILES | EC50 (S1P1 [1]) [nM] | EC50 (S1P1 [4]) [nM] | also measured
O=C(O)C[C@H]1CCc2c1[nH]c1ccc(OCc3ccc(C4CCCC4)c(C(F)(F)F)c3)cc21 [APD334, reference compound] | 2.07 |  | EC50 (S1P1 [2]): 6.26 nM; AUC(0-inf) [3, 5]: 9410 ng·h/mL; clearance [3, 5]: 1.83 mL/min/kg; half-life [3, 5]: 5.2 h; AUC(0-inf) ([3]; oral administration 1 mg/kg): 4440 ng·h/mL; Cmax ([3]; oral administration 1 mg/kg): 341 ng/mL; half-life ([3]; oral administration 1 mg/kg): 5.5 h; F ([3]; oral administration 1 mg/kg): 46.3%
O=C(O)CCc1cc2cc(OCc3ccc(C4CCCC4)c(C(F)(F)F)c3)ccc2[nH]1 [Compound 1] | < 0.05 | 0.95 | 
CCc1c(CCC(=O)O)[nH]c2ccc(OCc3ccc(C4CCCC4)c(C(F)(F)F)c3)cc12 [Compound 2] | 0.07 | 1.62 | EC50 (S1P1 [2]): 0.32 nM
O=C(O)CCn1cnc2cc(OCc3ccc(C4CCCC4)c(C(F)(F)F)c3)ccc21 [Compound 4] | 0.5 |  | 
O=C(O)CCc1nc2cc(OCc3ccc(C4CCCC4)c(C(F)(F)F)c3)ccc2[nH]1 [Compound 6] | 0.16 |  | 
O=C(O)CCn1ccc2cc(OCc3ccc(C4CCCC4)c(C(F)(F)F)c3)ccc21 [Compound 12] | 0.65 | 1.96 | 
O=C(O)CCc1[nH]c2ccc(OCc3ccc(C4CCCC4)c(C(F)(F)F)c3)cc2c1F [Compound 14] | 0.07 | 1.86 | EC50 (S1P1 [2]): 0.14 nM; AUC(0-inf) [3, 5]: 10800 ng·h/mL; clearance [3, 5]: 1.55 mL/min/kg; half-life [3, 5]: 4.1 h; AUC(0-inf) ([3]; oral administration 1 mg/kg): 2340 ng·h/mL; Cmax ([3]; oral administration 1 mg/kg): 258 ng/mL; half-life ([3]; oral administration 1 mg/kg): 4 h; F ([3]; oral administration 1 mg/kg): 21.3%
N#Cc1c(CCC(=O)O)[nH]c2ccc(OCc3ccc(C4CCCC4)c(C(F)(F)F)c3)cc12 [Compound 17] | 0.21 | 1.78 | 
O=C(O)CCc1cc2cc(OCc3ccc(C4CCCC4)c(C(F)(F)F)c3)c(F)cc2[nH]1 [Compound 18] | 0.08 | 1.1 | EC50 (S1P1 [2]): 0.69 nM
O=C(O)CCc1[nH]c2ccc(OCc3ccc(C4=CCCC4)c(C(F)(F)F)c3)cc2c1Cl [Compound 21] | 0.035 | 2.26 | 
O=C(O)CCc1[nH]c2ccc(OCc3ccc(C4CCC4)c(C(F)(F)F)c3)cc2c1Cl [Compound 22] | 0.11 | 1.65 | 
O=C(O)CCc1[nH]c2ccc(OCc3ccc(C4CCCCC4)c(C(F)(F)F)c3)cc2c1Cl [Compound 23] | 0.032 | 3.82 | 
O=C(O)CCc1[nH]c2ccc(OCc3ccc(OC4CCCC4)c(C(F)(F)F)c3)cc2c1Cl [Compound 24] | 0.0072 | 1.73 | 
O=C(O)CCc1[nH]c2ccc(OCc3cnc(C4CCCC4)c(C(F)(F)F)c3)cc2c1Cl [Compound 25] | 0.0017 | 1.23 | 
O=C(O)CCc1[nH]c2ccc(OCc3ccc(C4CCOC4)c(C(F)(F)F)c3)cc2c1Cl (centres unmarked) [Compound 26] | 0.0041 | 1.11 | 
O=C(O)CCc1[nH]c2ccc(OCc3ccc(C4CCOCC4)c(C(F)(F)F)c3)cc2c1Cl [Compound 27] | 0.0021 | 1.03 | 
O=C(O)CCc1cc2cc(OCc3ccc(N4CCCC4)c(C(F)(F)F)c3)ccc2[nH]1 [Compound 28] |  | 2.08 | 
O=C(O)CCc1cc2cc(OCc3cnc(C4CCCC4)c(C(F)(F)F)c3)ccc2[nH]1 [Compound 29] |  | 2.15 | 
O=C(O)CCc1[nH]c2ccc(OCc3cnc(C4CCCC4)c(C(F)(F)F)c3)cc2c1F [Compound 30] | 0.15 | 0.62 | 
O=C(O)CCc1cc2cc(OCc3ccc(C4CCOC4)c(C(F)(F)F)c3)ccc2[nH]1 (centres unmarked) [Compound 31] | 0.18 | 2.63 | 
Cc1c(CCC(=O)O)[nH]c2ccc(OCc3ccc(C4CCOC4)c(C(F)(F)F)c3)cc12 (centres unmarked) [Compound 32] | 0.56 | 1.47 | 
O=C(O)CCc1[nH]c2ccc(OCc3ccc(C4CCOC4)c(C(F)(F)F)c3)cc2c1F (centres unmarked) [Compound 33] | 0.057 | 1.1 | 
O=C(O)CCc1cc2cc(OCc3ccc(C4CCOCC4)c(C(F)(F)F)c3)ccc2[nH]1 [Compound 34] |  | 5.35 | 
Cc1c(CCC(=O)O)[nH]c2ccc(OCc3ccc(C4CCOCC4)c(C(F)(F)F)c3)cc12 [Compound 35] | 0.34 | 0.88 | 
O=C(O)CCc1[nH]c2ccc(OCc3ccc(C4CCOCC4)c(C(F)(F)F)c3)cc2c1F [Compound 36] | 0.3 | 0.85 | 
O=C(O)CCc1cc2cc(OCc3ccc(OC4CCCC4)c(C(F)(F)F)c3)ccc2[nH]1 [Compound 37] | 0.2 | 1.72 | 
Cc1c(CCC(=O)O)[nH]c2ccc(OCc3ccc(OC4CCCC4)c(C(F)(F)F)c3)cc12 [Compound 38] |  | 1.11 | 
O=C(O)CCc1[nH]c2ccc(OCc3ccc(OC4CCCC4)c(C(F)(F)F)c3)cc2c1F [Compound 39] | 0.027 | 0.76 | 
Cc1c(CCC(=O)O)[nH]c2ccc(OCc3cnc(C4CCCC4)c(C(F)(F)F)c3)cc12 [Compound 40] |  | 1.18 | 
